According to EP1608650B1, “PYRENE-LINKED PYRROLO(2,1-C)(1,4)BENZODIAZEPINE DERIVATIVES USEFUL AS ANTICANCER AGENTS” (Council of Scientific and Industrial Research, priority 2003, dated 2004):

How the values were obtained:
(CNS) SF-268 = experiment: In vitro one dose primary anticancer assay (NCI); format: cell-based, human; settings: one dose at 10^-4 molar concentration
(Breast) MCF7 = experiment: In vitro one dose primary anticancer assay (NCI); format: cell-based, human; settings: one dose at 10^-4 molar concentration
(Lung) NCI-H460 = experiment: In vitro one dose primary anticancer assay (NCI); format: cell-based, human; settings: one dose at 10^-4 molar concentration
Breast = settings: average of six to nine different cancer cell lines, log value
Description: (§1) In vitro biological activity studies were carried out at National Cancer Institute (USA).
(§2) For each compound, dose response curves for each cell line were measured at a minimum of five concentrations at 10 fold dilutions. A protocol of 48 h continuous drug exposure was used and a sulforhodamine B (SRB) protein assay was used to estimate cell viability or growth. […]
(§3) Each cancer type represents the average of six to nine different cancer cell lines.

Melanoma = settings: average of six to nine different cancer cell lines, log value
Description: as §1, §2, §3

Leukemia = settings: average of six to nine different cancer cell lines, log value
Description: as §1, §2, §3

Non-small-cell lung = settings: average of six to nine different cancer cell lines, log value
Description: as §1, §2, §3

Colon = settings: average of six to nine different cancer cell lines, log value
Description: as §1, §2, §3

CNS = settings: average of six to nine different cancer cell lines, log value
Description: as §1, §2, §3

Prostate = settings: average of six to nine different cancer cell lines, log value
Description: as §1, §2, §3

Ovarian = settings: average of six to nine different cancer cell lines, log value
Description: as §1, §2, §3

Renal = settings: average of six to nine different cancer cell lines, log value
Description: as §1, §2, §3

colon cancer (HCC-2998) = settings: read-out: potency (at the LC50 level)
Description: as §1, §2

[1] = tested on: non-small cell lung cancer (NCI-H226); settings: read-out: potency (at the LC50 level)
Description: as §1, §2

renal cancer (A498) = settings: read-out: potency (at the LC50 level)
Description: as §1, §2

melanoma cancer (M14) = settings: read-out: potency (at the LC50 level)
Description: as §1, §2

prostate cancer (DU-145) = settings: read-out: potency (at the LC50 level)
Description: as §1, §2

[2] = tested on: CNS cancer cell lines (SNB75); settings: read-out: potency (at the LC50 level)
Description: as §1, §2

leukemia cancer (SR) = settings: read-out: potency (at the LC50 level)
Description: as §1, §2

human tumour cell lines = experiment: cells
Description: as §1, §2

How did the “Growth percentages (CNS) SF-268” value ((CNS) SF-268) turn out when “7-Methoxy-8-[N-(1"-pyrenyl)-butne-4'-carboxamide]-oxy-(11aS)-1,2,3,11a-tetra-hydro-5H-pyrrolo[2,1-c][1,4]benzodiazepin-5-one [Vg]” was run?
The value was 131.

And the “Growth percentages (Breast) MCF7” value ((Breast) MCF7)?
The value was 72.

And the “Growth percentages (Lung) NCI-H460” value ((Lung) NCI-H460)?
The value was 106.

For `COc1cc2c(cc1OCCCC(=O)Nc1ccc3ccc4cccc5ccc1c3c45)N=C[C@@H]1CCCN1C2=O` [Ve, 7-Methoxy-8-[N-(1"-pyrenyl)-propane-3'-carboxamide]-oxy-(11aS)-1,2,3,11atetra-hydro-5H-pyrrolo[2,1-c][1,4]benzodiazepin-5-one], which “Growth percentages (CNS) SF-268” value ((CNS) SF-268) is on record?
Its value is 70.

And the “Log LC50 (concentration in mol/L causing 50% lethality)” value (Breast)?
Its value is > -4.00 mol/L.

What about the “Log LC50 (concentration in mol/L causing 50% lethality)” value (Melanoma) of the same compound?
The value was -5.62 mol/L.

And the “Log LC50 (concentration in mol/L causing 50% lethality)” value (Leukemia)?
Its value is -4.65 mol/L.

And the “Log LC50 (concentration in mol/L causing 50% lethality)” value (Non-small-cell lung)?
Its value is -4.67 mol/L.

And the “Log LC50 (concentration in mol/L causing 50% lethality)” value (Colon)?
The value was -5.00 mol/L.

And the “Log LC50 (concentration in mol/L causing 50% lethality)” value (CNS)?
Its value is -5.23 mol/L.

And the “Log LC50 (concentration in mol/L causing 50% lethality)” value (Prostate)?
The value was -5.30 mol/L.

What about the “Log LC50 (concentration in mol/L causing 50% lethality)” value (Ovarian) of the same compound?
Its value is > -4.00 mol/L.

And the “Log LC50 (concentration in mol/L causing 50% lethality)” value (Renal)?
Its value is -5.05 mol/L.

What about the “Growth percentages (Breast) MCF7” value ((Breast) MCF7) of the same compound?
Its value is 31.

What about the CC50 (colon cancer (HCC-2998)) of the same compound?
Its CC50 is 0.01 µM.

And the CC50 [1]?
Its CC50 is 0.01 µM.

And the CC50 (renal cancer (A498))?
The CC50 was 0.1 µM.

What about the CC50 (melanoma cancer (M14)) of the same compound?
Its CC50 is 0.1 µM.

What about the CC50 (prostate cancer (DU-145)) of the same compound?
Its CC50 is 10 µM.

And the CC50 [2]?
The CC50 was 10 µM.

What about the CC50 (leukemia cancer (SR)) of the same compound?
Its CC50 is 0.1 µM.

What about the GI50 (human tumour cell lines; Homo sapiens, 48 h, read-out: Log10 GI50 (converted)) of the same compound?
The GI50 was 0.0178 µM.

What about the “Log10 LC50” value (human tumour cell lines; mean graph midpoint (MG_MID), 48 h continuous drug exposure, 50% cell death) of the same compound?
Its value is -4.74.

What about the “Log10 TGI” value (human tumour cell lines; mean graph midpoint (MG_MID), 48 h continuous drug exposure, total cell growth inhibition) of the same compound?
The value was -6.89.

What about the “Growth percentages (Lung) NCI-H460” value ((Lung) NCI-H460) of the same compound?
Its value is 11.
